Experimental data taken from patent US20120020926A1, “COMPOSITION COMPRISING CAFTARIC ACID AND/OR DERIVATIVES THEREOF” (NESTEC S.A., priority 2009, published 2012).
Like-named read-outs stand apart in the source and are kept apart here.

How the values were obtained:
chlorogenate esterase = details: Aspergillus japonicus, 1.85 mg/mL, pH 7
Description: A solution of chlorogenate esterase (0.8 mg, 24 U/g, from Kikkoman Japan) in 100 μl phosphate buffer (50 mM, pH 7.0) was added to a solution of caftaric acid (0.37 mg) in 100 μl phosphate buffer (50 mM, pH 7.0). The mixture was then incubated at 37° C. for 4 h. […] The supernatant was then analysed by HPLC. A reaction control was run in parallel under the same reaction conditions but without enzyme.
(§1) HPLC-DAD analysis of caftaric acid and hydrolysis products was performed on a Agilent 1100 system equipped with a Atlantis C18 reverse-phase column (4.6×100 mm, particle size 3 μm) and a diode array detector. The column was equilibrated with water containing 0.1% formic acid. After injection, a linear gradient to a final solvent composition of 55% water and 45% acetonitrile (containing 0.1% formic acid) was run within 12 min at a flow rate of 1 ml/min. Caftaric acid and caffeic acid were monitored by UV at 320 nm and were quantified using standard calibration curves.

[1] = tested on: spray-dried preparation of L. johnsonii; details: Lactobacillus johnsonii, 6 mM, pH 7
Description: 10 mg of a spray-dried preparation of L. johnsonii (3.3 E09 cfu/g) were dissolved in 100 μl of phosphate buffer (50 mM, pH 7.0). To this solution, 100 μl of a caftaric acid solution (12 mM, phosphate buffer 50 mM, pH 7.0) were added. The mixture was then incubated at 37° C. and samples were withdrawn at different reaction times. After centrifugation (3000 g, 5 min) and filtration (0.45 μm pore size syringe filters, Millipore SLHA 025 BS) the samples were analysed by HPLC.
as §1

liver metastasis = details: subcutaneous and oral administrations; cited from earlier work
[2] = tested on: L. johnsonii (CNCM I-1225) fresh cells; experiment: Hydrolysis of caftaric acid with L. johnsonii (La1) fresh cells; assay type: in vitro ADME, Lactobacillus johnsonii; details: after 4 h reaction time, 37° C.
Description: Cells of L. johnsonii (CNCM I-1225) were grown (7.0 E08 cfu/ml) and centrifuged (5000 g, 10 min), the pellets were resuspended in phosphate buffer (50 mM, pH 7.0) at a concentration of 0.61 g/ml. To 100 μl of this cells solution, 100 μl of a solution of caftaric acid (12 mM) was added and the mixture was incubated at 37° C. Samples were withdrawn at different reaction times, centrifuged (3000 g, 5 min) and filtered through 0.45 μm pore size syringe filters (Millipore SLHA 025 BS) and analysed by HPLC.
A reaction control was run in parallel under the same reaction conditions but without bacteria.
as §1

[3] = tested on: Nrf2-ARE pathway (AREc32 cells); experiment: Antioxidant Responsive Element (ARE) luciferase assay; assay type: cell-based, human; details: for F/C (firefly luciferase activity): AREc reporter cell line, 24 h
[4] = tested on: L. johnsonii (CNCM I-1225) crude cell extract
Description: (§2) Cells of L. johnsonii (CNCM I-1225) were grown (7.0 E08 cfu/ml) and centrifuged (5000 g, 10 min), the pellets were resuspended in phosphate buffer (50 mM, pH 7.0) at a concentration of 0.61 g/ml. The cells were then lysed using the glass-beads method. 600 μl of cells preparation were put into a Mini-Beadbeater for 1 min of intense shaking, cooled in ice, and put another 1 min in the Mini-Beadbeater. The crude cell extract (100 μl) was then added to 100 μl of a solution of caftaric acid (12 mM, phosphate buffer 50 mM, pH 7.0) and the mixture was incubated at 37° C. Samples were withdrawn at different reaction times, centrifuged (3000 g, 5 min), filtered through 0.45 μm pore size syringe filters (Millipore SLHA 025 BS) and analysed by HPLC.
as §1

[5] = tested on: L. johnsonii (CNCM I-1225) crude cell extract; experiment: Hydrolysis of caftaric acid with La1 extract (lysed cells); details: after 2 h, 37° C.
Description: as §2, §1

| SMILES | Hydrolysis of caftaric acid into caffeic acid by chlorogenate esterase (amount by HPLC) (chlorogenate esterase; 0 min) | Hydrolysis of caftaric acid into caffeic acid by chlorogenate esterase (amount by HPLC) (chlorogenate esterase; 15 min) | Hydrolysis of caftaric acid into caffeic acid by chlorogenate esterase (amount by HPLC) (chlorogenate esterase; 30 min) | Hydrolysis of caftaric acid into caffeic acid by chlorogenate esterase (amount by HPLC) (chlorogenate esterase; 60 min) | Hydrolysis of caftaric acid into caffeic acid by chlorogenate esterase (amount by HPLC) (chlorogenate esterase; 120 min) | Hydrolysis of caftaric acid into caffeic acid by chlorogenate esterase (amount by HPLC) (chlorogenate esterase; 240 min) | hydrolysis of caftaric acid into caffeic acid by a spray-dried preparation of La1 (amount by HPLC) ([1]; 0 min) | hydrolysis of caftaric acid into caffeic acid by a spray-dried preparation of La1 (amount by HPLC) ([1]; 15 min) | hydrolysis of caftaric acid into caffeic acid by a spray-dried preparation of La1 (amount by HPLC) ([1]; 30 min) | hydrolysis of caftaric acid into caffeic acid by a spray-dried preparation of La1 (amount by HPLC) ([1]; 60 min) | hydrolysis of caftaric acid into caffeic acid by a spray-dried preparation of La1 (amount by HPLC) ([1]; 120 min) | hydrolysis of caftaric acid into caffeic acid by a spray-dried preparation of La1 (amount by HPLC) ([1]; 240 min) | other results |
| --- | --- | --- | --- | --- | --- | --- | --- | --- | --- | --- | --- | --- | --- |
| O=C(O)/C=C/c1ccc(O)c(O)c1 [Caffeic acid, Caffeic Acid] | 0% | 18% | 26% | 57% | 81% | 98% | 0 | 32 | 53 | 76 | 92 | 98 | liver metastasis (liver metastasis): significantly reduced liver metastasis |
| O=C(/C=C/c1ccc(O)c(O)c1)O[C@@H](C(=O)O)[C@@H](O)C(=O)O [Caftaric acid] | 99% | 82% | 64% | 43% | 19% | 2% | 99 | 68 | 47 | 24 | 8 | 2 | transformation of caftaric acid into caffeic acid [2]: all caftaric acid was transformed into caffeic acid; Nrf2-luciferase reporter activity ([3]; AREc32 cells, saturation inactivation response at higher doses): positive dose-dependent response; F/C (firefly luciferase activity) ([3]; 125 μg/ml): 2796; F/C (firefly luciferase activity) ([3]; 250 μg/ml): 5821; F/C (firefly luciferase activity) ([3]; 500 μg/ml): 5182; F/C (firefly luciferase activity) ([3]; 750 μg/ml): 25792; F/C (firefly luciferase activity) ([3]; 1000 μg/ml): 4777; F/C (firefly luciferase activity) ([3]; 1200 μg/ml): 29043; reaction rate of hydrolysis as compared to whole cells [4]: increase of the reaction rate; transformation of caftaric acid into caffeic acid [5]: all caftaric acid acid was transformed into caffeic acid |
